# Experimental data reported in ChEMBL document CHEMBL5257035, “Nucleoside Derived Antibiotics to Fight Microbial Drug Resistance: New Utilities for an Established Class of Drugs?” (J Med Chem, 2016).
# pIC50: −log10 of the molar value.
# Assays:
# [1] = biological target: T1, Phospho-N-acetylmuramoyl-pentapeptide-transferase (Escherichia coli, UniProt E2QF15); assay: Inhibition of MraY in Escherichia coli
# T1 sequence (E2QF15 whole entry): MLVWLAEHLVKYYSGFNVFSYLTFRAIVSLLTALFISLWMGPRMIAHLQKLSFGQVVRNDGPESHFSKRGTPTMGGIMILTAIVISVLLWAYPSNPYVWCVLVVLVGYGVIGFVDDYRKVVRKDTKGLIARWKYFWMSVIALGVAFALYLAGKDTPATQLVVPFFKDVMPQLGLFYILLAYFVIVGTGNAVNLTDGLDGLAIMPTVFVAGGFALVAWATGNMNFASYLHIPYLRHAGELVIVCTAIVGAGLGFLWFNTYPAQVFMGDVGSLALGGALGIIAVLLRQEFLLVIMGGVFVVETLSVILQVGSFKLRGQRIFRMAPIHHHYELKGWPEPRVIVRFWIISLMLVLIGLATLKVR
# Bacillus subtilis = assay: Antibacterial activity against Bacillus subtilis ATCC 6633 assessed as bacterial growth inhibition by agar diffusion method; format: functional
# [2] = Toxicity in rat; details: in vivo
# [3] = Inhibition of Bacterial MraY; set-up: species or system Bacteria
# Candida albicans = assay: Inhibition of Candida albicans chitin synthase at 1 uM relative to control
# [4] = biological target: T2, Phospho-N-acetylmuramoyl-pentapeptide-transferase (Escherichia coli K-12, UniProt P0A6W3); assay: Inhibition of MraY in Escherichia coli K12
# T2 sequence (P0A6W3 whole entry): T1 sequence (E2QF15 whole entry)
SMILES,pIC50 [1],MIC (Bacillus subtilis),LD50 [2],also measured
NC[C@H]1O[C@@H](O[C@@H](Cc2cn(CCCCCCCCCCOc3ccc(C(=O)c4ccccc4)cc3)nn2)[C@H]2O[C@@H](n3ccc(=O)[nH]c3=O)[C@H](O)[C@@H]2O)[C@H](O)[C@@H]1O,5.10,–,–,–
NC[C@H]1O[C@@H](O[C@@H](Cn2cc(Cc3ccc(COc4ccc(C(=O)c5ccccc5)cc4)cc3)nn2)[C@H]2O[C@@H](n3ccc(=O)[nH]c3=O)[C@H](O)[C@@H]2O)[C@H](O)[C@@H]1O,5.10,–,–,–
CSCC[C@H](NC(=O)N[C@@H](Cc1c[nH]c2ccccc12)C(=O)O)C(=O)N[C@@H](CN(C)C(=O)[C@@H](N)Cc1cccc(O)c1)C(=O)N/C=C1/C[C@@H](O)[C@H](n2ccc(=O)[nH]c2=O)O1,–,12.5 µg/mL,–,–
CCC(C)CCCCCCCCCCCC/C=C/C(=O)N[C@H]1[C@H](O[C@@H]2O[C@@H](CO)[C@H](O)[C@H](O)[C@H]2NC(C)=O)O[C@H](C[C@@H](C)[C@H]2O[C@@H](n3ccc(=O)[nH]c3=O)[C@H](O)[C@@H]2O)[C@H](O)[C@@H]1O (some centres undefined),–,0.1 µg/mL,137 µg/kg,–
CC(=O)N[C@H]1[C@H](O[C@@H]2O[C@H](C[C@@H](C)[C@H]3O[C@@H](n4ccc(=O)[nH]c4=O)[C@H](O)[C@@H]3O)[C@H](O)[C@H](O)[C@H]2NC(=O)/C=C/CCCCCCCCCCC(C)C)O[C@@H](CO)[C@H](O)[C@@H]1O,–,0.1 µg/mL,137 µg/kg,–
CO[C@H]1[C@@H](O)[C@H](n2ccc(=O)[nH]c2=O)O[C@@H]1C(OC1OC(C(=O)Nc2ccc(C(O)C(O)C(=O)N/C=C/C(=O)NCC(=O)O)cc2)=CC(O)C1O)C(N)=O (some centres undefined),–,–,–,pIC50 [3]: 7.96
CO[C@H]1[C@H](O[C@@H](C2C(=O)N(Cc3ccccc3)C(=O)N2CCCNC(=O)[C@@H](NC(=O)[C@@H](NC(=O)N[C@H](C(=O)O)C(C)C)[C@@H]2CCNC(=N)N2)[C@@H](O)C(C)C)[C@H]2O[C@@H](n3ccc(=O)[nH]c3=O)[C@H](O)[C@@H]2O)O[C@H](CN)[C@H]1O (some centres undefined),–,–,–,pIC50 [3]: 5.20
CNC[C@H]1O[C@@H](OC[C@H]2O[C@@H](n3ccc(=O)[nH]c3=O)[C@H](O)[C@@H]2O)[C@H](O)[C@@H]1O,4.60,–,–,–
O=C(NCCCNC(=O)[C@@H](O)[C@H](O)C(=O)NC[C@H]1O[C@@H](n2ccc(=O)[nH]c2=O)[C@H](O)[C@@H]1O)[C@@H](O)[C@H](O)C(=O)NC[C@H]1O[C@@H](n2ccc(=O)[nH]c2=O)[C@H](O)[C@@H]1O,–,–,–,inhibition (Candida albicans): 10%
NC[C@H]1O[C@@H](OC[C@H]2O[C@@H](n3ccc(=O)[nH]c3=O)[C@H](O)[C@@H]2O)[C@H](O)[C@@H]1O,4.60,–,–,pIC50 [3]: 4.30; pIC50 [4]: 5.00
CC(=O)N[C@H]1[C@H](O[C@@H]2O[C@H](C[C@@H](C)[C@H]3O[C@@H](n4ccc(=O)[nH]c4=O)[C@H](O)[C@@H]3O)[C@H](O)[C@H](O)[C@H]2NC(=O)CC(O)CCCCCCCCCCCCC(C)C)O[C@@H](CO)[C@H](O)[C@@H]1O (some centres undefined),–,0.1 µg/mL,137 µg/kg,–
CO[C@H]1[C@@H](O)[C@H](n2ccc(=O)[nH]c2=O)O[C@@H]1[C@@H](O[C@@H]1OC(C(=O)N[C@H]2CSC[C@@H](C)NC2=O)=C[C@@H](O)[C@H]1O)C(N)=O,7.24,–,–,–
CC(=O)N[C@H]1[C@H](O[C@@H]2O[C@H](C[C@@H](C)[C@H]3O[C@@H](n4ccc(=O)[nH]c4=O)[C@H](O)[C@@H]3O)[C@H](O)[C@H](O)[C@H]2NC(=O)/C=C/CCCCCCCCCCCC(C)C)O[C@@H](CO)[C@H](O)[C@@H]1O,–,0.1 µg/mL,137 µg/kg,–
N=CNC[C@H]1O[C@@H](OC[C@H]2O[C@@H](n3ccc(=O)[nH]c3=O)[C@H](O)[C@@H]2O)[C@H](O)[C@@H]1O,4.60,–,–,–
CO[C@H]1[C@@H](OC)[C@H](n2ccc(=O)[nH]c2=O)O[C@@H]1[C@@H](O[C@@H]1OC(C(=O)NCCSSCCNC(C)=O)=C[C@@H](O)[C@H]1O)C(N)=O,8.00,–,–,–
CC(=O)N[C@H]1[C@H](O[C@@H]2O[C@H](C[C@@H](C)[C@H]3O[C@@H](n4ccc(=O)[nH]c4=O)[C@H](O)[C@@H]3O)[C@H](O)[C@H](O)[C@H]2NC(=O)CCCCCCCCCCCCC(C)C)O[C@@H](CO)[C@H](O)[C@@H]1O,–,0.1 µg/mL,137 µg/kg,–
N=C(N)NC[C@H]1O[C@@H](OC[C@H]2O[C@@H](n3ccc(=O)[nH]c3=O)[C@H](O)[C@@H]2O)[C@H](O)[C@@H]1O,4.60,–,–,–
NC[C@H]1O[C@@H](OC[C@H]2O[C@@H](n3ccc(=O)[nH]c3=O)C[C@@H]2O)[C@H](O)[C@@H]1O,–,–,–,pIC50 [4]: 5.00

SMILES,pIC50 [1],MIC (Bacillus subtilis),LD50 [2],also measured
CCC(C)CCCCCCCCCCCCC(=O)N[C@H]1[C@H](O[C@@H]2O[C@@H](CO)[C@H](O)[C@H](O)[C@H]2NC(C)=O)O[C@H](C[C@@H](C)[C@H]2O[C@@H](n3ccc(=O)[nH]c3=O)[C@H](O)[C@@H]2O)[C@H](O)[C@@H]1O (some centres undefined),–,0.1 µg/mL,137 µg/kg,–
NC(=O)[C@H](O)[C@@H](O)C(=O)NC[C@H]1O[C@@H](n2ccc(=O)[nH]c2=O)[C@H](O)[C@@H]1O,–,–,–,inhibition (Candida albicans): 12%
NC[C@H]1O[C@@H](O[C@@H](Cc2cn(Cc3ccc(COc4ccc(C(=O)c5ccccc5)cc4)cc3)nn2)[C@H]2O[C@@H](n3ccc(=O)[nH]c3=O)[C@H](O)[C@@H]2O)[C@H](O)[C@@H]1O,5.10,–,–,–
CCCCCCCCCCc1cn(C[C@H](O[C@@H]2O[C@H](CN)[C@@H](O)[C@H]2O)[C@H]2O[C@@H](n3ccc(=O)[nH]c3=O)[C@H](O)[C@@H]2O)nn1,5.10,–,–,–
O=C(NC[C@H]1O[C@@H](n2ccc(=O)[nH]c2=O)[C@H](O)[C@@H]1O)[C@@H](O)[C@H](O)C(=O)NC[C@H]1O[C@@H](n2ccc(=O)[nH]c2=O)[C@H](O)[C@@H]1O,–,–,–,inhibition (Candida albicans): 35%
CCC(C)CCCCCCCCCCCCCCC(=O)N[C@H]1[C@H](O[C@@H]2O[C@@H](CO)[C@H](O)[C@H](O)[C@H]2NC(C)=O)O[C@H](C[C@@H](C)[C@H]2O[C@@H](n3ccc(=O)[nH]c3=O)[C@H](O)[C@@H]2O)[C@H](O)[C@@H]1O (some centres undefined),–,0.1 µg/mL,137 µg/kg,–
CC(C)[C@H](NC(=O)N[C@H](C(=O)N[C@H](C(=O)NCCCN[C@@H](CC[C@H]1O[C@@H](n2ccc(=O)[nH]c2=O)[C@H](O)[C@@H]1O)C(=O)O)[C@@H](O)C(C)C)[C@@H]1CCNC(=N)N1)C(=O)O,5.77,–,–,pIC50 [3]: 3.82
CC(=O)N[C@H]1[C@H](O[C@@H]2O[C@H](C[C@@H](C)[C@H]3O[C@@H](n4ccc(=O)[nH]c4=O)[C@H](O)[C@@H]3O)[C@H](O)[C@H](O)[C@H]2NC(=O)CC(O)CCCCCCCCCCC(C)C)O[C@@H](CO)[C@H](O)[C@@H]1O (some centres undefined),–,0.1 µg/mL,137 µg/kg,–
CC(=O)N[C@H]1[C@H](O[C@@H]2O[C@H](C[C@@H](C)[C@H]3O[C@@H](n4ccc(=O)[nH]c4=O)[C@H](O)[C@@H]3O)[C@H](O)[C@H](O)[C@H]2NC(=O)CCCCCCCCCCCCCCC(C)C)O[C@@H](CO)[C@H](O)[C@@H]1O,–,0.1 µg/mL,137 µg/kg,–
CCCCCCCCCCCCN1C(=O)C([C@H](O[C@@H]2O[C@H](CN)[C@@H](O)[C@H]2OC)[C@H]2O[C@@H](n3ccc(=O)[nH]c3=O)[C@H](O)[C@@H]2O)N(CCCNC(=O)[C@@H](NC(=O)[C@@H](NC(=O)N[C@H](C(=O)O)C(C)C)[C@@H]2CCNC(=N)N2)[C@@H](O)C(C)C)C1=O (some centres undefined),–,–,–,pIC50 [3]: 5.20
NC[C@H]1O[C@@H](O[C@@H](CO)[C@H]2O[C@@H](n3ccc(=O)[nH]c3=O)[C@H](O)[C@@H]2O)[C@H](O)[C@@H]1O,–,–,–,pIC50 [3]: 5.30
NC[C@H]1O[C@@H](OC[C@@H]2C[C@@H](O)[C@H](n3ccc(=O)[nH]c3=O)O2)[C@H](O)[C@@H]1O,–,–,–,pIC50 [4]: 5.00
CCC(C)CCCCCCCCCC/C=C/C(=O)N[C@H]1[C@H](O[C@@H]2O[C@@H](CO)[C@H](O)[C@H](O)[C@H]2NC(C)=O)O[C@H](C[C@@H](C)[C@H]2O[C@@H](n3ccc(=O)[nH]c3=O)[C@H](O)[C@@H]2O)[C@H](O)[C@@H]1O (some centres undefined),–,0.1 µg/mL,137 µg/kg,–
NC[C@H]1O[C@@H](O[C@@H](Cn2cc(CCCCCCCCCCc3ccccc3)nn2)[C@H]2O[C@@H](n3ccc(=O)[nH]c3=O)[C@H](O)[C@@H]2O)[C@H](O)[C@@H]1O,5.10,–,–,–
NC(=O)[C@@H](O)[C@H](O)C(=O)NC[C@H]1O[C@@H](n2ccc(=O)[nH]c2=O)[C@H](O)[C@@H]1O,–,–,–,inhibition (Candida albicans): 20%
O=C(NCCNC(=O)[C@@H](O)[C@H](O)C(=O)NC[C@H]1O[C@@H](n2ccc(=O)[nH]c2=O)[C@H](O)[C@@H]1O)[C@@H](O)[C@H](O)C(=O)NC[C@H]1O[C@@H](n2ccc(=O)[nH]c2=O)[C@H](O)[C@@H]1O,–,–,–,inhibition (Candida albicans): 5%
CC(=O)N[C@H]1[C@H](O[C@@H]2O[C@H](C[C@@H](C)[C@H]3O[C@@H](n4ccc(=O)[nH]c4=O)[C@H](O)[C@@H]3O)[C@H](O)[C@H](O)[C@H]2NC(=O)/C=C/CCCCCCCCCCCCC(C)C)O[C@@H](CO)[C@H](O)[C@@H]1O,–,0.1 µg/mL,137 µg/kg,–
